According to patent publication US20030040510A1, “Selective estrogen receptor modulators in combination with estrogens” (Endorecherche, Inc., priority 2000, published 2003):
Entries after “also recorded” stand apart in the source; their conditions may differ. Read-outs that look alike come from different tables or passages of the source.

Columns and labels:
[1] = system: human breast cancer ZR-75-1 xenografts; assay: Tamoxifen-stimulated growth of ZR-75-1 xenografts in nude mice with or without EM-652.HCl (FIG. 9); format: in vivo
[2] = system: uterus and vagina of ovariectomized mice; assay: Uterine and vaginal weight in ovariectomized mice treated or not with estrone (9 days oral); format: in vivo, BALB/c mice; settings: for Inhibition of estrone-stimulated uterine weight / Inhibition of estrone-stimulated vaginal weight: 9 days, OVX mice + E1
Description: (St-Constant, Quebec, Canada) and housed 5 per cage in a temperature (23±1° C.)—and light (12 h light/day, lights on at 7:15)—controlled environment. The mice were fed rodent chow and tap water ad libitum. […] Ten mice were kept intact as controls. […] Compounds were dissolved in ethanol (4% final concentration) and administered in 0.4% methylcellulose. Mice in the intact and OVX control groups received the vehicle alone (4% ETOH-0.4% methylcellulose) during the 9-day period. The animals were killed by exsanguination at the abdominal aorta on the 11th morning following ovariectomy.

MCF-7 cells = assay: Proliferation of human breast cancer MCF-7 cells (DNA content); format: cell-based; settings: for IC50: Homo sapiens, read-out: Inhibition of 1nM E2 stimulation of DNA by tested compounds IC50
Description: The MCF-7 human breast adenocarcinoma cell line was derived from the pleural effusion of a patient. MCF-7 cells were used between passages 148 and 165 and subcultured weekly
Cells in their late logarithmic growth phase were harvested with 0.1% pancreatin (Sigma) and resuspended in the appropriate medium containing 50 ng bovine insulin/ml and 5% (v/v) FBS treated twice with dextran-coated charcoal to remove endogenous steroids. Cells were plated in 24-well Falcon plastic culture plates (2 cm^2/well) at the indicated density and allowed to adhere to the surface of the plates for 72 h. Thereafter, medium was replaced with fresh medium containing the indicated concentrations of compounds diluted from 1000×stock solutions in 99% redistilled ethanol in the presence or absence of E2. Control cells received only the ethanolic vehicle (0.1% EtOH,v/v). Cells were incubated for the specified time intervals with medium changes at 2-or 3-day intervals. Cell number was determined by measurement of DNA content.
Dose-response curves as well IC50 values were calculated using a weighted iterative nonlinear least-squares regression. All results are expressed as means±SEM.

Solid state stability = format: physicochemical
Text: In administering either EM-800 or EM-1538, it is believed to result in the same active compound in vivo.

[3] = system: ovariectomized female rats; assay: Prevention of bone loss, body fat, serum cholesterol and ALP, 26-week treatment of OVX rats (Example 5A, experiment 2); format: in vivo, Sprague-Dawley rats; settings: OVX rats, 26 weeks
Description: Ten to twelve week-old female Sprague-Dawley rats (Crl:CD(SD)Br) (Charles River Laboratory, St-Constant, Canada) weighing approximately 220-270 g at start of treatment were used. The animals were acclimatized to the environmental conditions (temperature: 22±3° C.; humidity: 50±20%; 12-h light-12-h dark cycles, lights on at 07:15 h) for at least 1 week before starting the experiments. The animals were housed individually and were allowed free access to tap water and a pelleted certified rodent feed (Lab Diet 5002, Ralston Purina, St-Louis, Mo.). Experiments were conducted in an animal facility approved by the Canadian Council on Animal Care (CCAC) and the Association for Assessment and Accreditation of Laboratory Animal Care (AAALAC) in accordance with the CCAC Guide for Care and Use of Experimental Animals.
On day 1 of the study, the animals of the appropriate groups were bilaterally OVX under isoflurane anesthesia. Tested compounds were administered as suspension in 0.4% methylcellulose by oral gavage. Treatments were initiated on day 2 of the study and were performed once daily during 26 weeks. In both experiments, animals not receiving a test article were treated with the appropriate vehicle alone during the same period.
After 3 months (experiment 1) or 26 weeks (experiment 2) of treatment, individual rats under Isoflurane anesthesia had their whole body skeleton and lumbar spine scanned using dual energy x-ray absorptiometry (DEXA; QDR 4500A, Hologic, Waltham, Mass.) and a Regional High Resolution Scan software. The bone mineral density (BMD) of the lumbar spine (vertebrae L2 to L4) and the total body composition (fat percentage) were determined.
After 3 months (experiment 1) or 26 weeks (experiment 2) of treatment, blood samples were collected at the jugular vein from overnight fasted animals (under Isoflurane anesthesia). Samples were processed for serum preparation and frozen at −80° C. until assay. Serum cholesterol levels and alkaline phospatase activity (ALP) were determined using the Boehringer Mannheim Diagnostic Hitachi 911 Analyzer (Boehringer Mannheim Diagnostic Laboratory Systems).

[4] = alone, absence of estrone, both doses used

CC1=C(c2ccc(O)cc2)[C@H](c2ccc(OCCN3CCCCC3)cc2)Oc2cc(O)ccc21.Cl [EM-652.HCl, (S)-(+)-7-hydroxy-3-(4′-hydroxyphenyl)-4-methyl-2-(4″-(2′″-piperidinoethoxy)phenyl)-2H-1-benzopyran hydrochloride]
Effect on tumor growth in the absence of Tamoxifen ([1]; EM-652.HCl by itself, hydrochloride): has no effect on tumor growth; also recorded: did not exert any stimulatory effect
Effect on the stimulatory effect of Tamoxifen on tumor growth ([1]; simultaneous treatment with Tamoxifen): completely blocked
Inhibition of estrone-stimulated uterine weight ([2]; 1 μg daily oral): 24%
Inhibition of estrone-stimulated vaginal weight ([2]; 1 μg daily oral): 10%
Inhibition of estrone-stimulated uterine weight ([2]; 3 μg daily oral): 48%
Inhibition of estrone-stimulated vaginal weight ([2]; 3 μg daily oral): 25%
Inhibition of estrone-stimulated uterine weight ([2]; 10 μg daily oral): 72%
Inhibition of estrone-stimulated vaginal weight ([2]; 10 μg daily oral): 53%
Stimulatory effect on uterine weight [2, 4]: no significant stimulatory effect
Stimulatory effect on vaginal weight [2, 4]: no significant stimulatory effect
IC50 (MCF-7 cells; MCF7, MCF-7, Experiment 2): 0.205 nM
IC50 (MCF-7 cells; MCF7, MCF-7, Experiment 1): 0.796 nM
Maximal stimulation of DNA by tested compounds (MCF-7 cells; MCF-7, Experiment 1): N.S.
Stimulation of DNA by tested compounds (MCF-7 cells; MCF-7, Experiment 2): N.S.
Solid state stability (Solid state stability): good solid state stability
Serum ALP [3]: 78 ± 4 IU
Serum cholesterol [3]: 0.98 ± 0.06 mmol/L
